Laboratory results published in patent US7951364B2, “CaR receptor as a mediator of migratory cell chemotaxis and/or chemokinesis” (The General Hospital Corporation, priority 2000, dated 2011).

Tests used:
CD14^+ monocytes = test: Transmigration assay (monocyte chemotaxis, transwell); type: cell-based, human; details: for Stimulation of transmigration: monocytes; for Inhibition of monocyte chemotaxis towards a positive gradient of Ca^++ by pretreatment: Ca^++ at 3 mM; for Interaction of chemokine with added/elevated Ca^++ on transmigration: chemokine in combination with elevated Ca^++; for Dependence of chemokine-induced chemotaxis of CD14^+ PBMC on extracellular calcium: positive concentration gradient of chemokine
Protocol: (§1) Preparation of peripheral blood CD14^+ monocytes. Low density cells were isolated from human and mouse peripheral blood using Ficoll-Hypaque (Pharmacia, Piscataway, N.J.). CD14^+ monocytes were purified by sorting on FACSVantage (Becton Dickinson, San Jose, Calif.) based on CD14 expression. Purified cells were incubated in either calcium-free medium (Hanks' Balanced Salt Solution 1×, CellGro, Hermdon. VA) or Iscove's Medium 1×(Mod) (CellGro, Herndon, Va.) which contains 1.5 mM Ca++. […] Cells were incubated for up to 24 hours in 5% CO2 humidified air. Monocytes were then detached from the plate using a cell scraper. All calcium concentrations indicated in the presentation of the data represent the total Ca^++ present in the basal medium plus any added Ca^++.
(§2) Transmigration assays. Transwells (5 μm pore size polycarbonate membrane, 12 mm diameter) (Costar, Corning, N.Y.) were used to assess cell migration using an established methodology (25). The concentration of Ca^++ in IMDM (CellGro, Herndon, Va.) in the upper and lower chambers of the transwell were adjusted according to a checkerboard analysis of chemotaxis. Calcium concentrations varied from 0 mM to 6.5 mM. Purified monocytes (1×10^4) were then placed in the top chamber with 150 μl of IMDM (CellGro, Hemdon, Va.). 500 μl of the medium was added to the bottom of the well and supplemented with varying concentrations of Ca^++ or with Ca^++ plus 10 ng/ml of MCP-1, 100 ng/ml of SDF-1α or 10 ng/ml of MIP-1α (PeproTech, Rocky Hills, N.Y.). Cells were incubated at 37° C. for 3 hours. To study inhibition of chemotaxis, cells were subsequently incubated with wortmannin (1 μM for 20 minutes at 37° C.), herbimycin (1 μM for 20 minutes at 37° C.) or genistein (1 μg/ml for 20 minutes at 37° C.), before their use in transmigration assays. At the end of the experiment, cells were then harvested from the lower chamber and counted using a hemocytometer.

CCR-2 = test: Chemokine receptor expression on monocytes by flow cytometry: CCR-2; type: cell-based, human; details: for Mean fluorescent intensity -CCR-2 Mean +/− s.e.m.: CD14^+ monocytes, agonist 1 μM in the presence of 1.5 mM Ca^++
Protocol: (§3) Chemokine receptor expression and flow cytometric analysis.
Table 1: Exposure of CD14^+ monocytes to Ca^++ enhances CCR2 expression in a dose dependent manner. Monocytes were exposed to varying concentrations of Ca^++ and to the selective CaR activator, NPS R-467 (1 μM), or to NPS S-467 (1 μM) in the presence of 1.5 mM Ca^++. The median fluorescence intensity for CCR2 expression was measured for each Ca^++ concentration and in the presence of NPS R-467 or S-467. Mean values +/−s.e.m. from three independent experiments are shown.

CaR [1] = target: T1, CaR (Homo sapiens, UniProt P41180); test: Cytosolic calcium changes in purified monocytes (Indo-1/AM, flow cytometry); type: cell-based; details: for Increase in cytosolic calcium: 1 μM in the presence of 1.5 mM Ca^++; for Stimulation of cytosolic calcium responses: monocytes
T1 construct: endogenous in cells; host or cells: peripheral blood CD14+ monocytes, sorted by FACS
T1 sequence (P41180 20-1078): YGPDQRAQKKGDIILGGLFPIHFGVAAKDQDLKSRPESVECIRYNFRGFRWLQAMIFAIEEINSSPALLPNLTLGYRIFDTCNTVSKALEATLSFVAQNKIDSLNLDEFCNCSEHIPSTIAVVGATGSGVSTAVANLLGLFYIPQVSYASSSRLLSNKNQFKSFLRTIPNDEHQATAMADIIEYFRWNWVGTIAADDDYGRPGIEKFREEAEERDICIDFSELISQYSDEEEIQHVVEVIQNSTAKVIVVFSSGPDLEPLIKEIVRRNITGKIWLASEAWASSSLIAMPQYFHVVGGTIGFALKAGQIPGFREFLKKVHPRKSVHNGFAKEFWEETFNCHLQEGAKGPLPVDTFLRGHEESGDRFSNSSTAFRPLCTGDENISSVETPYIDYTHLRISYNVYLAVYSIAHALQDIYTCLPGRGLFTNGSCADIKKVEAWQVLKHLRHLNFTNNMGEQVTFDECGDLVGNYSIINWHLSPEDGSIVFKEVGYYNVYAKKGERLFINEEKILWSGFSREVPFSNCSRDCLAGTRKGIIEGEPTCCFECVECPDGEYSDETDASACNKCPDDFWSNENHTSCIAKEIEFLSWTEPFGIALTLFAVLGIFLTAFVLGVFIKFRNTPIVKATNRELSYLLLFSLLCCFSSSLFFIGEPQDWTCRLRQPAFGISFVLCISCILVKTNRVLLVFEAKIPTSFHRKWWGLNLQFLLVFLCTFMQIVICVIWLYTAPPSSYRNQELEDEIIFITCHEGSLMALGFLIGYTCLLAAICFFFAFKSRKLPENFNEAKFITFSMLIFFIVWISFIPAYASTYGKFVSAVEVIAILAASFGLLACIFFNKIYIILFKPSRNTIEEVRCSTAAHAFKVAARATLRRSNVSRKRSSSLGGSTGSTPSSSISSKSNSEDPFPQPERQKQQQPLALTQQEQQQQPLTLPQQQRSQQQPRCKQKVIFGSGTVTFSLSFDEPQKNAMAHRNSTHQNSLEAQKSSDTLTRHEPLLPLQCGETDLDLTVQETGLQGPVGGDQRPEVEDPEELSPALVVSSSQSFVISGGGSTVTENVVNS
Protocol: as §1
Cytosolic calcium changes. Purified monocytes were loaded with Indo-1/AM (Molecular Probes, Eugene, Oreg.). Cells were collected on FACSVantage for 0.30 sec to establish a baseline emission value for Indo-1/AM. […] Data acquisition then continued for up to 5 minutes.

[2] = system: monocytes (Mac-1 positive mononuclear cells); test: Biologic activity in vivo: subcutaneous injection, monocyte infiltration at injection site; design: species or system C57BL/6 mice; details: tissue excised 18 hours later, CaCl2 5.0 mM, NPS R-467 10 μM
Protocol: Biologic activity of ionic calcium in vivo. C57BL/6 mice (Jackson Laboratories) were injected subcutaneously at a marked, shaved spot on the abdomen with 20 μl of 5 mM CaCl2 or 20 μl of MCP-1 at a concentration of 10 ng/ml, with a combination of MCP-1 and 5 mM CaCl2 or with 10 μM NPS R-467 in PBS. Control mice were injected subcutaneously with 20 μl PBS alone. All subcutaneously injected agents contained less than 0.004 ng/ml of LPS by the limulus assay (Sigma) as previously described (Bleul, C. C., et al., J Exp Med, 1996, 184:1101-1109). Mice were sacrificed by CO2 asphyxiation 18 hours after injection, and injection sites were excised, snap-frozen and 4 μm cryosections were obtained and stained with hematoxylin and eosin. Immunocytochemistry was performed on the frozen sections using alkaline phosphatase-conjugated Mac-1 antibody (Pharmingen) as previously described and assessed by light microscopy (Bleul, C. C., et al., supra).

[3] = system: mononuclear cells derived from neonatal CaR −/−, +/− or +/+ mice; test: Transmigration assay with cells from CaR knockout and wild-type mice; type: cell-based, mouse; details: CaR −/−, +/− or +/+ cells
Protocol: as §2
CaR−/− were bred as previously described (Ho, C., et al., Nat Genet 1995, 11:389-94). To produce CaR−/− mice for this study, heterozygote mice were intercrossed. The mice studied were either 129S6/svev or 129S6/svev/Swiss Webster mixed genetic background. […]

CaR [4] = test: CaR surface expression on monocytes after exposure to chemokines; type: cell-based, human; details: monocytes after chemokine stimulation; untreated 361+/−25
Text: as §3
In order to assess whether there was reciprocal regulation of the CaR by chemokine receptors, we evaluated CaR surface expression on cells before and after exposure to the chemokines, SDF-1α or MCP-1. The mean fluorescence intensity of CaR expression was 361+/−25 (mean+/−s.e.m.) units for untreated monocytes and rose to 673+/−59 following MCP-1 stimulation. Monocytic expression of CaR rose to 519+/−48 with SDF-1α a treatment.

human CD34^+ cells = test: In vitro assays of human CD34^+ hematopoietic progenitor cells; type: cell-based; details: in the setting of CaR activation
Text: Calcium ions effect Hematopoietic Progenitor Cells. We also assessed the effects of calcium, through its interaction with the calcium sensing receptor (CaR) using in vitro assays of human CD34^+ cells. […] Therefore, calcium participates in maintaining candidate stem cells in a primitive, undifferentiated state. […] This was accompanied by a decrease in the level of LTC-ICs in the bone marrow, but an increase in the level of CFU-Cs, with a converse increase in hematopoietic stem cells in is the peripheral blood.

Molecule: COc1cccc([C@@H](C)NCCCc2ccccc2)c1 [NPS R-467, reference compound]
- Potency of R-467 vs. S-467 in enhancing actions of high Ca^++ (cytosolic calcium, chemotaxis) (CD14^+ monocytes): greater potency
- Stimulation of transmigration (CD14^+ monocytes): Stimulation
- Mean fluorescent intensity -CCR-2 Mean +/− s.e.m. (CCR-2): 460 +/− 52
- Increase in cytosolic calcium (CaR [1]): Sustained increases
- Stimulation of cytosolic calcium responses (CaR [1]): Stimulation
- Accumulation of mononuclear cells staining positive for Mac-1 at injection site [2]: Accumulation

Molecule: COc1cccc([C@H](C)NCCCc2ccccc2)c1 [NPS S-467, reference compound]
- Stimulation of transmigration (CD14^+ monocytes): Stimulation
- Mean fluorescent intensity -CCR-2 Mean +/− s.e.m. (CCR-2): 417 +/− 48
- Increase in cytosolic calcium (CaR [1]): Sustained increases
- Stimulation of cytosolic calcium responses (CaR [1]): Stimulation

Molecule: C[C@@H]1C[C@@H]([C@H](O)CC2CC(=O)NC(=O)C2)C(=O)[C@@H](C)C1 [cyclohexamide, reference compound]
- Effect on the Ca^++-mediated upregulation of CCR-2 (CCR-2; inhibition of new protein synthesis): no effect

Molecule: O=c1c(-c2ccc(O)cc2)coc2cc(O)cc(O)c12 [genistein, reference compound]
- Inhibition of Ca^++-induced monocyte chemotaxis by pretreatment (CD14^+ monocytes): inhibitable
- Inhibition of monocyte chemotaxis towards a positive gradient of Ca^++ by pretreatment (CD14^+ monocytes): inhibitable

Molecule: CO[C@H]1[C@@H](OC)C[C@H](C)[C@@H](OC)C2=CC(=O)C=C(NC(=O)/C(C)=C/C=C\[C@H](OC)[C@@H](OC(N)=O)/C(C)=C/[C@@H]1C)C2=O [herbimycin, reference compound]
- Inhibition of Ca^++-induced monocyte chemotaxis by pretreatment (CD14^+ monocytes): inhibitable
- Inhibition of monocyte chemotaxis towards a positive gradient of Ca^++ by pretreatment (CD14^+ monocytes): inhibitable

Molecule: NCCCNCCCCNCCCN [spermine, reference compound]
- Stimulation of transmigration (CD14^+ monocytes): Stimulation
- Stimulation of cytosolic calcium responses (CaR [1]): Stimulation

Molecule: MCP-1: chemokine (PeproTech), ligand of CCR-2
- Interaction of chemokine with added/elevated Ca^++ on transmigration (CD14^+ monocytes): synergistic
- Dependence of chemokine-induced chemotaxis of CD14^+ PBMC on extracellular calcium (CD14^+ monocytes): dependent upon extracellular calcium
- Accumulation of mononuclear cells staining positive for Mac-1 at injection site [2]: Accumulation
- Chemotaxis of mouse mononuclear cells [3]: capable of chemotaxing
- Mean fluorescence intensity of CaR expression (mean+/−s.e.m.) (CaR [4]): 673+/−59 units

Molecule: SDF-1α
- Interaction of chemokine with added/elevated Ca^++ on transmigration (CD14^+ monocytes): no synergistic effect
- Dependence of chemokine-induced chemotaxis of CD14^+ PBMC on extracellular calcium (CD14^+ monocytes): induced migration independent of calcium
- Chemotactic responses of primitive hematopoietic cells to SDF-1α (human CD34^+ cells): attenuated
- Mean fluorescence intensity of CaR expression (mean+/−s.e.m.) (CaR [4]): 519+/−48 units

B1: MIP-1α: chemokine (PeproTech) (protein, UniProt P10147 24-92, looked up)
C-C motif chemokine 3: SLAADTPTACCFSYTSRQIPQNFIADYFETSSQCSKPGVIFLTKRSRQVCADPSEEWVQKYVSDLELSA
- Interaction of chemokine with added/elevated Ca^++ on transmigration (CD14^+ monocytes): no synergistic effect
- Dependence of chemokine-induced chemotaxis of CD14^+ PBMC on extracellular calcium (CD14^+ monocytes): induced migration independent of calcium
